Test results from article PMC9022596, “Convergent Evolution of Antibiotic Tolerance in Patients with Persistent Methicillin-Resistant Staphylococcus aureus Bacteremia” (Infection and Immunity, 2022).
Several values for one entry are separate records, joined by “and”; a condition that tells them apart may be missing. Equal entries are not always repeated.

Key:
Test in all cases: microbe, parasite or virus in culture
Set-up in all cases: species or system Staphylococcus aureus clinical blood isolates and ATCC 29213; Broth microdilution MIC in cation-adjusted Mueller-Hinton broth with 50 ug/mL CaCl2, EUCAST reading, 37 C
[1] = system: T1, Staphylococcus aureus PB0701; settings: PB0701, 16 h, replicate MIC, MHB + 50 ug/mL CaCl2
T1 construct: PB0701
Method: (§1) MICs were measured in cation-adjusted Mueller-Hinton broth (MHB) supplemented with 50 μg/mL CaCl2 (MHB-Ca^2+) via broth microdilution in 96-well plates with an inoculum of ∼5 × 10^5 CFU per mL. Antibiotic test concentrations ranged from 0.0625 μg/mL to 32 μg/mL by 2-fold dilutions. Plates were incubated at 37°C for 16 h without shaking, and results were interpreted in accordance with European Committee on Antimicrobial Susceptibility Testing reading guidelines ([72]). S. aureus ATCC 29213 was used as a quality-control strain.

[2] = system: T2, Staphylococcus aureus PB1511; settings: PB1511, 16 h, replicate MIC, MHB + 50 ug/mL CaCl2
T2 construct: PB1511
Method: as §1

[3] = system: T3, Staphylococcus aureus PB1405; settings: PB1405, 16 h, replicate MIC, MHB + 50 ug/mL CaCl2
T3 construct: PB1405
Method: as §1

[4] = system: T4, Staphylococcus aureus PB1101; settings: PB1101, 16 h, replicate MIC, MHB + 50 ug/mL CaCl2
T4 construct: PB1101
Method: as §1

[5] = system: T5, Staphylococcus aureus PB0411; settings: PB0411, 16 h, replicate MIC, MHB + 50 ug/mL CaCl2
T5 construct: PB0411
Method: as §1

[6] = system: T6, Staphylococcus aureus PB0603; settings: PB0603, 16 h, replicate MIC, MHB + 50 ug/mL CaCl2
T6 construct: PB0603
Method: as §1

[7] = system: T7, Staphylococcus aureus PB0409; settings: PB0409, 16 h, replicate MIC, MHB + 50 ug/mL CaCl2
T7 construct: PB0409
Method: as §1

[8] = system: T8, S. aureus ATCC 29213; settings: Staphylococcus aureus, ATCC29213, 16 h; replicate MIC, MHB + 50 ug/mL CaCl2
T8 construct: ATCC 29213
Method: as §1

[9] = system: T9, Staphylococcus aureus PB1406; settings: PB1406, 16 h, replicate MIC, MHB + 50 ug/mL CaCl2
T9 construct: PB1406
Method: as §1

[10] = system: T10, Staphylococcus aureus PB0702; settings: PB0702, 16 h, replicate MIC, MHB + 50 ug/mL CaCl2
T10 construct: PB0702
Method: as §1

Compound | MIC [1] | MIC [2] [µg/mL] | MIC [3] | MIC [4] [µg/mL] | MIC [5] [µg/mL] | MIC [6] | MIC [7] [µg/mL] | MIC [8] [µg/mL] | MIC [9] [µg/mL] | MIC [10] [µg/mL]
CCCCCCCCCC(=O)N[C@@H](Cc1c[nH]c2ccccc12)C(=O)N[C@H](CC(N)=O)C(=O)N[C@@H](CC(=O)O)C(=O)N[C@@H]1C(=O)NCC(=O)N[C@@H](CCCN)C(=O)N[C@@H](CC(=O)O)C(=O)N[C@H](C)C(=O)N[C@@H](CC(=O)O)C(=O)NCC(=O)N[C@H](CO)C(=O)N[C@@H]([C@H](C)CC(=O)O)C(=O)N[C@@H](CC(=O)c2ccccc2N)C(=O)O[C@@H]1C [Daptomycin] | 1 µg/mL and 2 µg/mL | 2 | 2 µg/mL and 1 µg/mL | 2 | 1 | 2 µg/mL | 1 | 1 | 1 | 2
CN[C@H](CC(C)C)C(=O)N[C@H]1C(=O)N[C@@H](CC(N)=O)C(=O)N[C@H]2C(=O)N[C@H]3C(=O)N[C@H](C(=O)N[C@H](C(=O)O)c4cc(O)cc(O)c4-c4cc3ccc4O)[C@H](O)c3ccc(c(Cl)c3)Oc3cc2cc(c3O[C@@H]2O[C@H](CO)[C@@H](O)[C@H](O)[C@H]2O[C@H]2C[C@](C)(N)[C@H](O)[C@H](C)O2)Oc2ccc(cc2Cl)[C@H]1O [Vancomycin] | 2 µg/mL | 2 | 2 µg/mL | 2 | 2 | 4 µg/mL and 2 µg/mL | 2 | 2 | 2 | 2
CCO/N=C(\C(=O)N[C@@H]1C(=O)N2C(C(=O)[O-])=C(Sc3nc(-c4cc[n+](C)cc4)cs3)CS[C@H]12)c1nsc(N)n1 [Ceftaroline] | 0.25 µg/mL | 0.5 | 0.25 µg/mL | 0.5 | 0.5 | 0.25 µg/mL | 0.5 | 0.25 | 0.25 | 0.5
CC(=O)NC[C@H]1CN(c2ccc(N3CCOCC3)c(F)c2)C(=O)O1 [Linezolid] | 4 µg/mL | 4 | 4 µg/mL | 4 | 4 | 4 µg/mL | 4 | 4 | 4 | 4
